Reference: patent US5519115A, “Reverse antimicrobial peptides” (priority 1993, dated 1996)

Columns and labels:
Format in all cases: cell-based
[1] = system: Cercospora sp.; test: Antifungal bioassay (MCIC, spore germination); conditions: 10^6 spores/test; mean after 24 hours of treatment
Method: (§1) Fungi were grown on an appropriate medium, in this case a potato dextrose agar plate, for several weeks. At the end of that period, the plate was flooded with about 5 mL of sterile distilled water to harvest spores. The spore concentration was determined by use of a hemocytometer and the spore suspension was stored in a sterile tube at 4° C. until it was needed. Then 82 microliters of potato dextrose broth and 3 microliters of spore suspension (ranging from 10^5 to 10^7 spores total) were added to 12 wells in a 96 well microtiter plate for each AMPPP to be tested, with 1-4 replicate sets of 12 wells prepared for each AMPPP within a single experiment. In several instances, more than one spore concentration was used in order to determine the efficacy of certain AMPPPs as a function of the number of target spores. Stock solutions of each AMPPP were prepared at a concentration of 1 mg/mL and 0-15 microliters of each peptide stock solution were added to a single well in the microtiter plate followed by a sufficient volume of water to bring the total well volume to 100 microliters. […] Typical peptide volumes assayed were 0, 1, 2, 3, 4, 5, 6, 7, 8, 9, 10, and 15 microliters, which corresponds to a final peptide concentration in the range of 0-150 micrograms/mL. The microtiter plates were sealed with parafilm and incubated at room temperature for 48 hours. The fungal growth was observed after 24 and 48 hours by microscope using a 4× and/or a 10× objective lens. The amount of spore germination and fungal growth was recorded as a quantitative measurement at each observation time using a system of pluses and minuses: [-] meant no germination having occurred, [+] meant swollen spores with an extended germ tube, [++] meant the beginnings of mycelial growth with the overall appearance of a loose lattice, and [+++] meant a dense mycelial growth with the overall appearance of a thick opaque meshwork. The MCIC value for each AMPPP tested was then recorded, where the MCIC value is defined as the lowest peptide concentration at which no spore germination occurred (rating=[-]). […]

[2] = system: Helminthosporium carbonum; test: Antifungal bioassay (MCIC, spore germination); conditions: 10^6 spores/test; mean after 24 hours of treatment
Method: as §1

[3] = system: Trichoderma reesei; test: Antifungal bioassay (MCIC, spore germination); conditions: 10^6 spores/test; mean after 24 hours of treatment
Method: as §1

[4] = system: Erwinia carotovora carotovora strain SR319 (Ecc SR319); test: Antibacterial bioassay (MCIC)
Method: Erwinia carotovora carotovora strain SR319 (Ecc SR319) (a gift of Dr. C. H. Liao, USDA-ARS, Philadelphia, Pa.) was streaked on a plate of Luria-Bertani ("LB") broth agar and grown overnight at 28° C. After 24 hours, a loopful of Ecc SR319 was picked from the agar plate and was added to 3 ml of LB broth (10 g Bacto-tryptone, 5 g Bacto-yeast extract, and 10 g sodium chloride per liter of solution; autoclaved sterile) in a capped sterile 10 ml test tube. This culture was grown overnight before its optical density at 630 nm was recorded using a Dynatech MR 600 microplate reader (Dynatech Laboratories, Inc., Alexandria, Va.). A portion of the overnight culture was adjusted with Luria broth to obtain a culture with an optical density at 630 nm of 0.2. About 250 microliters of this culture was added to 2250 microliters of Luria broth in a capped, sterile 10 ml test tube before this diluted culture was grown for 3-4 hours at 28° C. in a shaking incubator until the optical density of the freshly grown culture at 630 nm reached 0.2. […] The optical density of each Ecc SR319 culture well was recorded at 20 hours and then at 44 hours. A minimum complete inhibitory concentration (MCIC) was then determined for each replicate set of varying peptide concentrations at which no bacterial growth was observed. […]

Met-Mag 1 dimer (head-to-tail) [Peptide No. 9]
MCIC Values With: Cercospora sp. [1]: 25+/-10 micrograms per mL | MCIC Values With: Helminthosporium carbonum [2]: 63+/-29 micrograms per mL | MCIC Values With: Trichoderma reesei [3]: 24+/-12 micrograms per mL | MCIC Values (Ecc SR319) ([4]; mean after 20 hours of treatment, at least three replicate experiments): 33 +/- 5 micrograms per mL | activity against Ecc SR319 compared with parent monomers (in words) ([4]; tested at equivalent microgram per mL quantities, parent monomers Pep Nos. 1, 2, 4, and 12): better activity than at least one of the parent monomers
